This note sets out measurements from ChEMBL document CHEMBL1155566, “Antifeedant activity of withanolides from Salpichroa origanifolia on Musca domestica” (J Nat Prod, 2000).

The test system of experiment [1] is Musca domestica. In words: Antifeedant activity against Musca domestica CIPEIN larvae assessed as time needed to pupate 50% at 500 ppm. Type of experiment: functional.
Experiment [2] relates to Musca domestica. In words: Antifeedant activity in Musca domestica CIPEIN larvae assessed as time needed to pupate 50% at 100 ppm. The format is functional.
Experiment [3] relates to Musca domestica. In words: Antifeedant activity against Musca domestica CIPEIN larvae assessed as inhibition of larvae development after 18 days. The format is functional, organism-based.
The test system of experiment [4] is Musca domestica. In words: Antifeedant activity against Musca domestica CIPEIN larvae supplied with high yeast and milk concentration assessed as time needed to pupate 50%. The format is functional.
The subject of experiment [5] is Musca domestica. In words: Antifeedant activity against Musca domestica CIPEIN larvae supplied with medium yeast and milk concentration assessed as time needed to pupate 50%. Type of experiment: functional.
Experiment [6] has as its system Musca domestica. In words: Antifeedant activity against Musca domestica CIPEIN larvae assessed as larval mortality at 200 ppm after 18 days. Type of experiment: functional.

Activity calls are given as the source filed them. The calls are words filed in the database; no cut-off is given here.

In the case of `CC(=O)Oc1cc([C@H](C)[C@@H]2C[C@@H]3O[C@@H]3[C@H](OC(C)=O)O2)cc2c1[C@@H]1C[C@@H]3O[C@@]34CC=CC(=O)[C@]4(C)[C@H]1CC2`, in experiment [1], the outcome was Active.
On to `C[C@@H](c1ccc2c(c1)CC[C@H]1[C@H]2CC(=O)[C@@]2(O)CC=CC(=O)[C@]12C)[C@@H]1C[C@@H]2O[C@@H]2C(=O)O1`, for which the outcome in experiment [1] was inactive.
Turning to `C[C@@H](c1ccc2c(c1)CC[C@H]1[C@H]2C[C@@H]2O[C@@]23CC=CC(=O)[C@]13C)[C@@H]1C[C@@H]2O[C@@H]2C(=O)O1`, the outcome in experiment [1] was inactive.
Turning to `C[C@@H](c1ccc2c(c1)CC[C@H]1[C@H]2C[C@@H]2O[C@@]23CC=CC(=O)[C@]13C)[C@@H]1C[C@@H]2O[C@@H]2[C@H](O)O1` [SALPICHROLIDE A], the Activity in experiment [2] came to 7.9 days; in experiment [4], 6.9 days; in experiment [5] it was 12.2 days; in experiment [1], 10.3 days; in experiment [6] it was 100%. Moreover, the EC50 in experiment [3] came to 290 ppm.
For `C[C@@H](c1ccc2c(c1)CC[C@H]1[C@H]2C[C@@H](O)[C@@]2(O)CC=CC(=O)[C@]12C)[C@@H]1C[C@@H]2O[C@@H]2[C@H](O)O1` [SALPICHROLIDE C], the Activity in experiment [2] worked out at 7.8 days; in experiment [1], 8.1 days; in experiment [6], 100%. The EC50 in experiment [3] came out at 310 ppm.
For the molecule `C[C@@H](c1cc(O)c2c(c1)CC[C@H]1[C@H]2C[C@@H]2O[C@@]23CC=CC(=O)[C@]13C)[C@@H]1C[C@@H]2O[C@@H]2[C@H](O)O1` [SALPICHROLIDE G], the values for the Activity in experiment [2], in experiment [1] and in experiment [6] were 7.7 days, 8 days and 100%, respectively. In addition, the EC50 in experiment [3] stood at 203 ppm.
